Data: PubChem BioAssay AID2060510 (Molecular Pharmacology Branch, DTP, NCI, 2025)
pIC50: −log10 of the molar value. “And” between values parts separate entries of the source, which are not always exact repeats. Identical values can stand only once. Values belong to the compound of their own block, whether it stands above or below them.

Test system: 439559-082-T-J2-PDC spheroids viability
Experiment: Anticancer human tumor 439559-082-T-J2-PDC patient-derived colon adenocarcinoma cell line growth inhibition [GQUAD]
Conditions: for viability, T/C: stronger effect = lower value
Source text: DNA G-quadruplex Stabilizer Agents in Combinations in Complex Spheroids
A high-throughput screen of multi-cell type tumor spheroids was designed to identify active combinations of DNA G-quadruplex stabilizer agents and targeted small molecules. Complex spheroids include a stromal component modeled by human endothelial cells (HUVEC) and fibroblasts modeled by human mesenchymal stem cells (MSCs). The concentration ranges selected for each drug and investigational agent were based upon clinically achievable concentrations if the clinical Cmax of the agent was known.
Compounds. The drugs and investigational agents: pidnarulex (CX-5461; NSC782164), APTO-253 (NSC789042), BRACO-19 (NSC847499), peposertib (NSC802822), ceralasertib (NSC780249), elimusertib (NSC800525), camonsertib (NSC841442), AZD-1390 (NSC803789), olaparib (NSC753686), talazoparib (NSC767125), ART-558 (NSC835418), sotorasib (NSC818433), MRTX-1133 (NSC836407), SN-38 (NSC673596), topotecan (NSC609699), etoposide (NSC141540), doxorubicin (NSC123127), gemcitabine (NSC613327), 5-fluorouracil (NSC19893), paclitaxel (NSC125973), vemurafenib (NSC761431), panobinostat (NSC761190), R-306465 (JNJ-16241199; NSC773264), adavosertib (NSC754352), TP-3654 (NSC805149), carboplatin (NSC241240), KSQ-4279 (NSC840948), and staurosporine (NSC755774) were obtained from the National Cancer Institute (NCI) Developmental Therapeutics Program Chemical Repository (34). The FDA-approved anticancer drug set is available from the NCI Developmental Therapeutics Program. […] The stock solutions were prepared in dimethyl sulfoxide (DMSO, Sigma-Aldrich, St. Louis, MO, cat. D2650) at 800-fold the tested concentration and stored at -70 degrees C prior to their use. All drugs and investigational agents were tested over a range starting from a high concentration at or near the clinical Cmax and decreasing in half-log increments. If the clinical Cmax for an agent had not been determined, the highest concentration tested was 10 microM.
2.3 Cell Culture. All cells were maintained in an incubator at 37 degrees C and 5% CO2 with 95% humidity. The PDC lines were cultured according to standard operating procedures established by the NCI PDMR. All PDCs were thawed and cultured in Matrigel-coated flasks prepared with a working solution of 1X Ham's F-12 nutrient mix, without supplementation (Invitrogen, cat. 11765054), 100 U/mL penicillin-streptomycin (Invitrogen, cat. 15140122), and 2.5% Matrigel (Corning Inc., cat. 354248) for the first three passages. The 857933-349-R-J2-PDC line was cultured in 6C/Colon 1B media, which includes advanced DMEM/F-12 (Thermo Fisher Scientific, cat. 12634028), 10 mM HEPES (Thermo Fisher Scientific, cat. 15630080), 1X GlutaMAX supplement (Thermo Fisher Scientific, cat. 35050061), 0.1 mg/mL primocin (InvivoGen, cat. ant-pm-2), 10% defined fetal bovine serum, heat inactivated (HyClone Laboratories Inc., cat. SH30070.03HI), 50% L-WRN conditioned media (ATCC, cat. CRL-3276), 1.25 mM N-Acetyl-L-cysteine (Sigma-Aldrich, cat. A9165), 10 mM nicotinamide (Sigma-Aldrich, cat. N0636), 1X B-27 supplement (Thermo Fisher Scientific, cat. 17504044), 1X N-2 supplement (Thermo Fisher Scientific, cat. 17502048), 10 microM Y-27632 dihydrochloride (Tocris Bioscience, cat. 1254), and 50 ng/mL human EGF recombinant protein (Thermo Fisher Scientific, cat. PHG0311). The 485176-168-R4-J1-PDC line was cultured in Panc media, which includes all 6C/Colon 1B media components plus 100 ng/mL human FGF-10 (Thermo Fisher Scientific, cat. 100-26), 500 nM SB-431542 (Selleckchem, cat. S1067), and gastrin (Tocris, cat. 3006).
[…]
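Further: spheroids exposed to the agents for 7 days before readout.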
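Wherever viability, T/C is given: percent of luminescence signal in DMSO vehicle wells taken as 100% viability.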

- pIC50 (curve of compound): < 5.00
Compound: CC(C)n1c(=O)n(C)c2cnc3cc(F)c(-c4ccc(OCCCN5CCCCC5)nc4)cc3c21
- viability, T/C (compound 0.0316 µM): 110% and 92.9% and 102%
- viability, T/C (compound 0.1 µM): 103% and 115% and 91.5%
- viability, T/C (compound 0.316 µM): 117% and 111% and 110%
- viability, T/C (compound 1 µM): 107% and 114% and 98.3%
- viability, T/C (compound 3.16 µM): 116% and 117% and 110%
- viability, T/C (compound 10 µM): 95.4% and 101% and 102%

- pIC50 (curve of compound): 6.55 and 6.72 and 6.66
Compound: CC1COCCN1c1cc(-c2ccnn2C)c2ccnc(-c3ccn[nH]3)c2n1 (stereo not drawn)
- viability, T/C (compound 0.0316 µM): 97.7% and 97.6% and 93.5%
- viability, T/C (compound 0.1 µM): 80.6% and 68.1% and 73.8%
- viability, T/C (compound 0.316 µM): 46.8% and 35.7% and 39.2%
- viability, T/C (compound 1 µM): 34.3% and 35.7% and 31.6%
- viability, T/C (compound 3.16 µM): 37.7% and 30.7% and 31.6%
- viability, T/C (compound 10 µM): 33.5% and 28.8% and 34%

- pIC50 (curve of compound): 6.48 and 5.66 and 5.60
Compound: CC(=O)O[C@H]1C(=O)[C@@]2(C)[C@H]([C@H](OC(=O)c3ccccc3)[C@]3(O)C[C@H](OC(=O)[C@H](O)[C@@H](NC(=O)c4ccccc4)c4ccccc4)C(C)=C1C3(C)C)[C@]1(OC(C)=O)CO[C@@H]1C[C@@H]2O
- viability, T/C (compound 0.0316 µM): 97.3% and 78.7% and 84.1%
- viability, T/C (compound 0.1 µM): 75.3% (2×) and 83.1%
- viability, T/C (compound 0.316 µM): 55.6% and 69.5% and 90.7%

- pIC50 (curve of compound): < 5.00
Compound: O=c1[nH]cc(F)c(=O)[nH]1
- viability, T/C (compound 0.0316 µM): 93.1% and 96.1% and 94.6%
- viability, T/C (compound 0.1 µM): 103% and 102% and 97.4%
- viability, T/C (compound 0.316 µM): 85.9% and 79.7% and 88.7%
- viability, T/C (compound 1 µM): 76.7% and 78.2% and 78.6%
- viability, T/C (compound 3.16 µM): 79.4% and 74.2% and 76.8%
- viability, T/C (compound 10 µM): 71.5% and 77.1% and 70.3%

Continued, compound first:

Compound: CC[C@@]1(O)C(=O)OCc2c1cc1n(c2=O)Cc2cc3c(CN(C)C)c(O)ccc3nc2-1 + CN(C)c1ccc(Nc2c3ccc(NC(=O)CCN4CCCC4)cc3nc3cc(NC(=O)CCN4CCCC4)ccc23)cc1
- pIC50 (curve of first compound, second compound 0.0316 µM): < 6.50
- pIC50 (curve of first compound, second compound 0.1 µM): < 6.50
- pIC50 (curve of first compound, second compound 0.316 µM): < 6.50
- pIC50 (curve of first compound, second compound 1 µM): < 6.50
- pIC50 (curve of first compound, second compound 3.16 µM): < 6.50
- pIC50 (curve of first compound, second compound 10 µM): < 6.50
- viability, T/C (second compound 0.0316 µM, first compound 0.000999 µM): 102%
- viability, T/C (second compound 0.0316 µM, first compound 0.00316 µM): 94.6%
- viability, T/C (second compound 0.0316 µM, first compound 0.00999 µM): 104%
- viability, T/C (second compound 0.0316 µM, first compound 0.0316 µM): 106%
- viability, T/C (second compound 0.0316 µM, first compound 0.0999 µM): 90.2%
- viability, T/C (second compound 0.0316 µM, first compound 0.316 µM): 76%
- viability, T/C (second compound 0.1 µM, first compound 0.000999 µM): 108%
- viability, T/C (second compound 0.1 µM, first compound 0.00316 µM): 111%
- viability, T/C (second compound 0.1 µM, first compound 0.00999 µM): 102%
- viability, T/C (second compound 0.1 µM, first compound 0.0316 µM): 85.7%
- viability, T/C (second compound 0.1 µM, first compound 0.0999 µM): 91.8%
- viability, T/C (second compound 0.1 µM, first compound 0.316 µM): 84%
- viability, T/C (second compound 0.316 µM, first compound 0.000999 µM): 123%
- viability, T/C (second compound 0.316 µM, first compound 0.00316 µM): 97.1%
- viability, T/C (second compound 0.316 µM, first compound 0.00999 µM): 101%
- viability, T/C (second compound 0.316 µM, first compound 0.0316 µM): 100%
- viability, T/C (second compound 0.316 µM, first compound 0.0999 µM): 87.9%
- viability, T/C (second compound 0.316 µM, first compound 0.316 µM): 84.7%
- viability, T/C (second compound 1 µM, first compound 0.000999 µM): 114%
- viability, T/C (second compound 1 µM, first compound 0.00316 µM): 99%
- viability, T/C (second compound 1 µM, first compound 0.00999 µM): 88.5%
- viability, T/C (second compound 1 µM, first compound 0.0316 µM): 101%
- viability, T/C (second compound 1 µM, first compound 0.0999 µM): 91.1%
- viability, T/C (second compound 1 µM, first compound 0.316 µM): 80.1%
- viability, T/C (second compound 3.16 µM, first compound 0.000999 µM): 99.8%
- viability, T/C (second compound 3.16 µM, first compound 0.00316 µM): 92.6%
- viability, T/C (second compound 3.16 µM, first compound 0.00999 µM): 102%
- viability, T/C (second compound 3.16 µM, first compound 0.0316 µM): 93.2%
- viability, T/C (second compound 3.16 µM, first compound 0.0999 µM): 103%
- viability, T/C (second compound 3.16 µM, first compound 0.316 µM): 91.9%
- viability, T/C (second compound 10 µM, first compound 0.000999 µM): 102%
- viability, T/C (second compound 10 µM, first compound 0.00316 µM): 95%
- viability, T/C (second compound 10 µM, first compound 0.00999 µM): 100%
- viability, T/C (second compound 10 µM, first compound 0.0316 µM): 107%
- viability, T/C (second compound 10 µM, first compound 0.0999 µM): 85.8%
- viability, T/C (second compound 10 µM, first compound 0.316 µM): 88.5%

Compound: O=C(NO)c1cnc(N2CCN(S(=O)(=O)c3ccc4ccccc4c3)CC2)nc1
- viability, T/C (compound 0.0316 µM): 84.3% and 92.9% and 85.8%
- viability, T/C (compound 0.1 µM): 81.2% and 79.9% and 84.2%
- viability, T/C (compound 0.316 µM): 84% and 62.6% and 64.7%
- pIC50 (curve of compound): 5.75 and 6.40 and 6.36

Compound: COc1ccc([C@@H](O)c2cc(-c3ncnc4cc(N5CCOCC5)ccc34)c(F)cc2Cl)nn1
- viability, T/C (compound 0.0316 µM): 101% and 95.3% and 86.2%
- viability, T/C (compound 0.1 µM): 85.9% and 92.8% and 85%
- viability, T/C (compound 0.316 µM): 94.8% and 100% and 84.1%
- viability, T/C (compound 1 µM): 98.8% and 88.3% and 102%
- viability, T/C (compound 3.16 µM): 86.5% and 77.7% and 79.9%
- viability, T/C (compound 10 µM): 91.6% and 78% and 75.7%
- pIC50 (curve of compound): < 5.00
